Assay results taken from patent US20140200215A1, “LYSOPHOSPHATIDIC ACID RECEPTOR ANTAGONISTS” (INTERMUNE, INC., priority 2013, published 2014).

Experiments:
Assay type in all cases: cell-based
Human LPA1 [1] = molecular target: T1, Human LPA1 (Homo sapiens, UniProt Q92633); experiment: Beta-Arrestin based assay for human LPA1R antagonists (PathHunter); conditions: CHO cells expressing ProLink tagged human LPA1R; antagonist mode, 0.5 micromolar LPA
Method: Beta-Arrestin Based Assays for Human LPA1R Antagonists and Agonists
A CHO cell line stably expressing the ProLink™ tagged human LPA1R was obtained from DiscoverX Inc, Fremont, Calif. In this system, β-Arrestin was fused to an N-terminal deletion mutant of β-galactosidase (termed the enzyme acceptor or EA), the human LPA1R was fused to a smaller (42 amino acids) weakly complementing fragment termed ProLink™. […] Cell handling and assays were performed according to protocols specified in the PathHunter® assays kits (DiscoverX, Fremont, Calif.). Assays were performed in quadruplicate in white 384 well plates. End point luminescence data were plotted and fit to a 4 parameter logistic function to obtain IC50 values. For antagonist assays, an […] concentration of agonist (LPA) equal to 0.5 micromolar was used.

[2] = tested on: primary fibroblasts (including lung, dermal), HFL-1, 3T3 and CHO cells expressing LPA1R; experiment: LPA1 migration assay (Oris cell migration); conditions: inhibition of cell migration in response to chemoattractant (LPA, serum)
Source text: Migration of primary fibroblasts (including lung, dermal), HFL-1, 3T3 and CHO cells expressing LPA1R were monitored using the Oris™ assay (Platypus Technologies, Madison, Wis.). These cells were dye (Cell Tracker Green™) loaded and serum starved for 12-24 hrs. In response to chemoattractants such as LPA and serum, the cells migrated inward in to the exclusion (detection) zone. After fixing, fluorescent cells in the detection zone were counted using a high content reader. The ability of LPA1 antagonists to inhibit cell migration is quantified by plotting cell number vs. compound concentration and curve fitting the resulting dose-response curve to a 4 parameter logistic function.

Human LPA1 [3] = molecular target: T1, Human LPA1; experiment: LPA1 calcium flux assay; design: the full-length cDNA for human LPA1 is obtained by PCR of the reverse transcription reaction; expressed in transfected cells; conditions: human LPA1 expressing CHO cells, stimulated with 10 nM LPA; read-out: Ca Flux LPA1 IC50
Method: Establishment of a CHO Cell Line Stably Expressing Human LPA1
A 1.1 kb cDNA encoding the human LPA1 receptor is cloned from human lung. Human lung RNA (Clontech Laboratories, Inc. USA) is reverse transcribed using the RETROscript kit (Ambion, Inc.) and the full-length cDNA for human LPA1 is obtained by PCR of the reverse transcription reaction. The nucleotide sequence of the cloned human LPA1 is determined by sequencing and is confirmed to be identical to the published human LPA1 sequence (An et al. Biochem. Biophys. Res. Commun. 231:619 (1997). The cDNA is cloned into the pCDNA5 pcDNA5/FRT expression plasmid and is transfected in CHO cells using lipofectamine 2000 (Invitrogen Corp., USA). Clones stably expressing human LPA1 are selected using hygromycin and identified as cells that show Ca-influx in response to LPA.
LPA1 and LPA3 Calcium Flux Assays
Human LPA1 or LPA3 expressing CHO cells were seeded at 20,000-45,000 cells per well in a 96-well poly-D-lysine coated plate one or two days before the assay. Prior to the assay, the cells were washed once with PBS and then cultured in serum-free media overnight. On the day of the assay, a calcium indicator dye (Calcium 4, Molecular Devices) in assay buffer (HBSS with Ca^2+ and Mg^2+ and containing 20 mM Hepes and 0.3% fatty-acid free human serum albumin) was added to each well and incubation continued for 1 hour at 37° C. 10 μl of test compounds in 2.5% DMSO were added to the cells and incubation continued at room temperature for 30 minutes. Cells were then stimulated by the addition of 10 nM LPA and intracellular Ca^2+ measured using the Flexstation 3 (Molecular Devices). IC50, were determined using Graphpad prism analysis of drug titration curves.

T1 sequence (Q92633 whole entry): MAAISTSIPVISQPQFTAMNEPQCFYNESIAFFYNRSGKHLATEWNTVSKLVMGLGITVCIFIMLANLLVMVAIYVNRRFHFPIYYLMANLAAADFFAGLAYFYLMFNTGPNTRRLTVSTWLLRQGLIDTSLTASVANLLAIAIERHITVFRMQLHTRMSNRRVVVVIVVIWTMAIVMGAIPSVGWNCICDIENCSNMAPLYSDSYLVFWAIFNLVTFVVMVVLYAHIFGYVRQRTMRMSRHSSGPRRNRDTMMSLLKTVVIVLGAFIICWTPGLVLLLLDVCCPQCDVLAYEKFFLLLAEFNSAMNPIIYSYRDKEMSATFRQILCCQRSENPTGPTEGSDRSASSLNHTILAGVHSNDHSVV

Compound	EC50 (Human LPA1 [1]) [nM]	EC50 [2] [nM]	IC50 (Human LPA1 [3]) [nM]
Cc1noc(C#Cc2ccc3cc(C4(CC(=O)O)CC4)ccc3c2)c1NC(=O)O[C@H](C)c1ccccc1 [IT003]	< 50	50 to 500	< 50
Cc1noc(-c2ccc(-c3ccc(C4(CC(=O)O)CC4)cc3)cc2)c1NC(=O)O[C@H](C)c1ccccc1 [IT004]	< 50	< 50	< 50
Cc1noc(-c2ccc(-c3ccc4c(C(=O)O)c[nH]c4c3)cc2)c1NC(=O)O[C@H](C)c1ccccc1 [IT009]	> 500	> 500	> 500
Cc1noc(-c2ccc(-c3nc4ccc(C(=O)O)cc4s3)cc2)c1NC(=O)O[C@H](C)c1ccccc1 [IT010]	> 500	> 500	> 500
C[C@@H](OC(=O)Nc1c(C#Cc2ccc3cc(C4(C(=O)O)CC4)ccc3c2)cnn1C)c1ccccc1 [IT014]	< 50	50 to 500	< 50
C[C@@H](OC(=O)Nc1c(C#Cc2ccc3cc(C4(C(=O)O)CC4)ccc3c2)cnn1C1CC1)c1ccccc1 [IT015]	< 50	50 to 500	50 to 500
CCn1ncc(C#Cc2ccc3cc(C4(C(=O)O)CC4)ccc3c2)c1NC(=O)O[C@H](C)c1ccccc1 [IT016]	< 50	50 to 500	< 50
C[C@@H](OC(=O)Nc1c(C#Cc2cc3sc(C4(C(=O)O)CC4)cc3s2)cnn1C)c1ccccc1 [IT017]	< 50	< 50	< 50
C[C@@H](OC(=O)Nc1c(-c2ccc(C#CC3(C(=O)O)CC3)cc2)cnn1C)c1ccccc1 [IT018]	> 500	> 500	> 500
CC(=O)N1CCn2c(nc(-c3ccc(-c4ccc(C5(C(=O)O)CC5)cc4)cc3)c2NC(=O)O[C@H](C)c2ccccc2)C1 [IT020]	> 500	> 500	> 500
C[C@@H](OC(=O)Nc1c(-c2ccc(-c3ccc(C4(C(=O)O)CC4)cc3)cc2)nc2n1CCN(S(C)(=O)=O)C2)c1ccccc1 [IT021]	> 500	> 500	> 500
CNC(=O)N1CCn2c(nc(-c3ccc(-c4ccc(C5(C(=O)O)CC5)cc4)cc3)c2NC(=O)O[C@H](C)c2ccccc2)C1 [IT022]	> 500	> 500	> 500
CCOC(=O)N1CCn2c(nc(-c3ccc(-c4ccc(C5(C(=O)O)CC5)cc4)cc3)c2NC(=O)O[C@H](C)c2ccccc2)C1 [IT023]	> 500	> 500	> 500
Cc1nsc(-c2ccc(C34CCC(CC(=O)O)(CC3)CC4)cc2)c1NC(=O)O[C@H](C)c1ccccc1 [IT026]	> 500	> 500	> 500
C[C@@H](OC(=O)Nc1c(-c2ccc(-c3ccc(C4(C(=O)O)CCOCC4)cc3)cc2)ncn1C)c1ccccc1 [IT027]	50 to 500	> 500	50 to 500
Cc1noc(-c2ccc(-c3ccc(C4(C(=O)O)CCOCC4)cc3)c(F)c2)c1NC(=O)O[C@H](C)c1ccccc1 [IT028]	< 50	< 50	< 50
Cc1noc(-c2cc(F)c(-c3ccc(C4(C(=O)O)CCOCC4)cc3)cc2F)c1NC(=O)O[C@H](C)c1ccccc1 [IT029]	< 50	50 to 500	50 to 500
Cc1noc(-c2cc(F)c(-c3ccc(C4(C(=O)O)CCOCC4)cc3)cc2F)c1NC(=O)O[C@H](C)c1ccccc1 [IT030]	> 500	> 500	> 500

Compound	EC50 (Human LPA1 [1]) [nM]	EC50 [2] [nM]	IC50 (Human LPA1 [3]) [nM]
C[C@@H](OC(=O)Nc1c(-c2ccc(-c3ccc(C4(C(=O)O)CC4)cc3)cc2)sc2ncccc12)c1ccccc1 [IT031]	< 50	50 to 500	50 to 500
C[C@@H](OC(=O)Nc1c(-c2ccc(-c3ccc(C4(C(=O)O)CC4)cc3)cc2)nc2cnccn12)c1ccccc1 [IT032]	< 50	50 to 500	50 to 500
C[C@@H](OC(=O)Nc1c(-c2ccc(-c3ccc(C4(C(=O)O)CC4)cc3)cc2)nn2ncccc12)c1ccccc1 [IT033]	< 50	< 50	50 to 500
CCOC(=O)C1(c2cc3sc(C#Cc4cnn(C)c4NC(=O)O[C@H](C)c4ccccc4)cc3s2)CC1 [IT085]	< 50	> 500	
CC(C)OC(=O)C1(c2cc3sc(C#Cc4cnn(C)c4NC(=O)O[C@H](C)c4ccccc4)cc3s2)CC1 [IT086]	50 to 500	> 500	
C[C@@H](OC(=O)Nc1c(C#Cc2cc3sc(C4(C(=O)OCOC(=O)C(C)(C)C)CC4)cc3s2)cnn1C)c1ccccc1 [IT087]	< 50	< 50	
COc1ccccc1OC(=O)C1(c2cc3sc(C#Cc4cnn(C)c4NC(=O)O[C@H](C)c4ccccc4)cc3s2)CC1 [IT088]	< 50	50 to 500	
C[C@@H](OC(=O)Nc1c(C#Cc2cc3sc(C4(NS(C)(=O)=O)CC4)cc3s2)cnn1C)c1ccccc1 [IT089]	> 500	> 500	
C[C@@H](OC(=O)Nc1c(C#Cc2cc3sc(C4(C(=O)OCC(=O)N(C)C)CC4)cc3s2)cnn1C)c1ccccc1 [IT090]	< 50	50 to 500	
Cc1nsc(-c2ccc(C3CCC(C4(C(=O)O)CC4)CC3)cc2)c1NC(=O)O[C@H](C)c1ccccc1 (stereo partly shown) [IT091]	50 to 500	> 500	
C[C@@H](OC(=O)Nc1c(C#CC2=CCC(C3(C(=O)O)CC3)CC2)cnn1C)c1ccccc1 (stereo partly shown) [IT092]	> 500	> 500	
Cc1nsc(-c2ccc(C34CCC(C5(C(=O)O)CC5)(CC3)CC4)cc2)c1NC(=O)O[C@H](C)c1ccccc1 [IT093]	> 500	> 500	
C[C@@H](OC(=O)Nc1c(-c2ccc(-c3ccc(C4(C(=O)O)CC4)cc3)cc2)cnn1C(F)(F)F)c1ccccc1 [IT094]	< 50	50 to 500	
C[C@@H](OC(=O)Nc1c(C#Cc2nc3sc(C4(C(=O)O)CC4)cc3s2)cnn1C)c1ccccc1 [IT095]	< 50	< 50	
C[C@@H](OC(=O)Nc1c(-c2cc(F)c(-c3ccc(C4(C(=O)O)CC4)cc3)cc2F)oc2cnccc12)c1ccccc1 [IT096]	< 50	50 to 500	
C[C@@H](OC(=O)N(C)c1c(C#Cc2cc3sc(C4(C(=O)O)CC4)cc3s2)cnn1C)c1ccccc1 [IT097]	50 to 500	> 500	
C[C@@H](OC(=O)Nc1c(C#Cc2cc3sc(C4(C(=O)NS(C)(=O)=O)CC4)cc3s2)cnn1C)c1ccccc1 [IT098]	< 50	< 50	
